Reference: patent US8309685B2 (Celgene Avilomics Research, Inc., priority 2007, dated 2012)
Read-outs that look alike come from different tables or passages of the source.

Legend:
HCV NS3/4A protease = HCV NS3/4A protease (UniProt Q9WMX2); assay: Method B: HCV Protease Assay using FRET Methodology; parameters: species or system Hepatitis C virus
From the text: Method B: HCV Protease Assay using FRET Methodology
A quantitative, fluorescence resonance energy transfer (FRET)-based methodology was employed to identify HCV NS3/4A protease inhibitors. The assay employed a synthetic FRET peptide, derived from the HCV NS5A/5B cleavage site, with the HCV protease to evaluate the activity of compounds against the protease by monitoring the cleavage activity of the complex. A synthetic peptide which encompasses the NS5A-5B junction (NH2-EDVVCCSMSYK-COOH) was labeled with Dabcyl and Edans at N- and C-termini, respectively (Invitrogen, Carlsbad, Calif.). Fluorescence measurement was used to estimate the IC50 value of the test compound. […] Upon cleavage of the FRET peptide by HCV NS3/4A proteinase complex (100 ng/mL), the fluorescence is recovered and can be continuously monitored at excitation/emission=340/490 nm.

[1] = system: cell line ET (luc-ubi-neo/ET), human Huh7 hepatoma cell line; assay: Method A: cytotoxicity in ET replicon cells (CytoTox-1); format: cell-based; conditions: concentration decreasing cell viability by 50%, 72 hr
Outline: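 ET cells (Huh7 carrying luciferase HCV replicon), 5×10^3 cells/well, given six 3-fold compound concentrations in DMEM with 5% FBS. After 72 hr, while subconfluent, cell number was measured with CytoTox-1 reagent. Interferon alpha-2b served as positive control.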

[2] = target: T1, HCV NS3/4A wild type (genotype 1b) (Hepatitis C virus genotype 1b, UniProt P26663); assay: Mass spectrometric analysis (MALDI-TOF) of covalent modification, HCV wild type; format: binding; conditions: 10-fold excess of compound to protein, 3 hrs
T1 construct: mass spectroscopic analysis of HCV NS3/4A wild-type protease domain; purchased Bioenza Calif
Protocol: Mass spectrometric analysis of HCV wild type or HCV variant C159S in the presence of test compound was performed. 100 pmols of HCV wild type (Bioenza Calif.) was incubated with compound for 1 hr and 3 hrs at 10-fold access of […] to protein. 1 ul aliquots of the samples (total volume of 4.24 ul) were diluted with 10 ul of 0.1% TFA prior to micro C4 ZipTipping directly onto the MALDI target using Sinapinic acid as the desorption matrix (10 mg/ml in 01% TFA:Acetonitrile 50:50). Analyses were performed on a Shimadzu Biotech Axima TOF^2 (Shimadzu Instruments) matrix-assisted-laser desorption/ionization Time-of-Flight (MALDI-TOF) mass spectrometer. The same procedure was carried out on 100 pmols of HCV C159S mutant of HCV protease for 3 hrs at 10-fold excess of (I-3) to protein.
As depicted in FIGS. 2, 3, 4, and 5, mass spectrometric analysis of HCV wild type or HCV mutants in the presence of test compound (I-3) was performed. […] 1 ul aliquots of the samples were diluted with 10 ul of 0.1% TFA prior to micro C4 ZipTipping directly onto the MALDI target using Sinapinic acid as the desorption matrix (10 mg/ml in 0.1% TFA:Acetonitrile 50:50).
Mass spectrometric analysis of HCV wild type (genotype 1b) in the presence of test compounds I-73 and I-75 was performed using the following protocol: HCV NS3/4A wild type (wt) was incubated for 1 hr at a 10× fold access of test compound to protein. 2 ul aliquots of the samples were diluted with 10 ul of 0.1% TFA prior to micro C4 ZipTipping directly onto the MALDI target using Sinapinic acid as the desorption matrix (10 mg/ml in 0.1% TFA:Acetonitrile 50:50). For intact protein mass measurement the instrument was set in Linear mode using a pulsed extraction setting of 24,500 and apomyoglobin as the standard to calibrate the instrument.
Mass spectrometric analysis of HCV NS3/4A genotypes 1a, 1b, 2a, and 3a in the presence of test compound I-96 was performed using the following protocol: HCV NS3/4A was incubated for 3 hr at a 10× fold access of test compound to protein. […]

## C=CC(=O)NC[C@H](NC(=O)OC(C)(C)C)C(=O)N1C[C@H](Oc2cc(-c3ccccc3)nc3cc(OC)ccc23)C[C@H]1C(=O)N[C@]1(C(=O)NS(=O)(=O)c2ccccc2)C[C@H]1C=C [Compound I-3, N-[(1,1-dimethylethoxy)carbonyl]-3-[(2-propenoyl)amino]-L-alanyl-(4R)-4-[(7-methoxy-2-phenyl-4-quinolinyl)oxy]-L-prolyl-1-amino-2-ethenyl-N-(phenylsulfonyl)-(1R,2S)-cyclopropanecarboxamide]
HCV NS3/4A protease; Enzyme/Assay: Biochemical; read-out: Inhibition, Biochemical
  IC50: 10 to 100 nM
[1]
  Inhibition, Cytotoxicity: E (IC50≧10,000 nM)

## C=C[C@@H]1C[C@]1(NC(=O)[C@@H]1C[C@@H](Oc2cc(-c3ccccc3)nc3cc(OC)ccc23)CN1C(=O)[C@H](CNC(=O)CCl)NC(=O)OC(C)(C)C)C(=O)NS(=O)(=O)c1ccccc1 [Compound I-7, N-[(1,1-dimethylethoxy)carbonyl]-3-[(chloroacetyl)amino]-L-alanyl-(4R)-4-[(7-methoxy-2-phenyl-4-quinolinyl)oxy]-L-prolyl-1-amino-2-ethenyl-N-(phenylsulfonyl)-(1R,2S)-cyclopropanecarboxamide]
HCV NS3/4A protease; read-out: Inhibition, Biochemical; Enzyme/Assay: Biochemical
  IC50: 10 to 100 nM
[1]
  Inhibition, Cytotoxicity: E (IC50≧10,000 nM)

## C=CC(=O)NCC(=O)N1C[C@H](Oc2cc(-c3ccccc3)nc3cc(OC)ccc23)C[C@H]1C(=O)N[C@]1(C(=O)NS(=O)(=O)c2ccccc2)C[C@H]1C=C [Compound I-27, (2S,4R)-1-(2-acrylamidoacetyl)-4-(7-methoxy-2-phenylquinolin-4-yloxy)-N-((1R,2S)-1-(phenylsulfonylcarbamoyl)-2-vinylcyclopropyl)pyrrolidine-2-carboxamide]
[1]
  Inhibition, Cytotoxicity: D (IC50>1000 nM and <10,000 nM)
[2]
  Covalent modification of HCV wild type by mass spectrometry: near complete covalent modification
